The target in this assay is PDE10A (Homo sapiens, UniProt Q9Y233). It counts as biochemical.

One substance from publication PMC8979230 (RSC Advances, 2022) can be followed below.

Sequence of PDE10A (Q9Y233 whole entry): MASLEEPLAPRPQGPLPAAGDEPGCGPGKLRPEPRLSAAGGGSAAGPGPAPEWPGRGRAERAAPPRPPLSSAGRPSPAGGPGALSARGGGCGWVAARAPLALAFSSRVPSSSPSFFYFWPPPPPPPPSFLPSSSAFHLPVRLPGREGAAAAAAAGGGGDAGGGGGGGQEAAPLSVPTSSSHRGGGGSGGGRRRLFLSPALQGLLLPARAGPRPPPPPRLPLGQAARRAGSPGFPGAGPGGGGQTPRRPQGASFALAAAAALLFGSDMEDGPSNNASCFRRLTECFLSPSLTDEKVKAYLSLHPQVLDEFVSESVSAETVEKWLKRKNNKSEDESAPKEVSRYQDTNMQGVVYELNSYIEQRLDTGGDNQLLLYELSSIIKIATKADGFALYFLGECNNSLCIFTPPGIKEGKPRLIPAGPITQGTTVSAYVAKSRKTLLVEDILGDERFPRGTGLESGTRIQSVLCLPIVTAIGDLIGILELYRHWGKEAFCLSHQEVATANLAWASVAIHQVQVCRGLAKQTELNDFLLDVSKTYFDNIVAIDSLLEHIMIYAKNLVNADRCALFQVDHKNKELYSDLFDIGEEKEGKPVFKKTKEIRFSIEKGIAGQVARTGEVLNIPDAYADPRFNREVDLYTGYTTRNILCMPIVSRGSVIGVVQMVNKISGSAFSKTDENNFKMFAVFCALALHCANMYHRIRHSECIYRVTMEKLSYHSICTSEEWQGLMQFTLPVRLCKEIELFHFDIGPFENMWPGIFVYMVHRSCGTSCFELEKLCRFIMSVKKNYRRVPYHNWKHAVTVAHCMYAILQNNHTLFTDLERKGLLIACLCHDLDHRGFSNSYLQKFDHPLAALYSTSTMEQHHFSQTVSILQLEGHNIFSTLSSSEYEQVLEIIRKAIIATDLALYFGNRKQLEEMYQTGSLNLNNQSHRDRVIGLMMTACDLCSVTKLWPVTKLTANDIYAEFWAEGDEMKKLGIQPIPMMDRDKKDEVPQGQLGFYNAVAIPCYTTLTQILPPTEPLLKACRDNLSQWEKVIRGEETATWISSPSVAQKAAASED

Zinc42657360 had an IC50 of 1600 nM.

As usually defined, the IC50 is the concentration that inhibits the measured activity by half. Lower therefore signals inhibition by little substance.
